Entries after “also recorded” stand apart in the source; their conditions may differ.

These results are taken from patent US12048730B2, “Pharmaceutical composition for preventing or treating cancer, containing oligopeptide as active ingredient” (L-BASE CO., LTD., priority 2018, dated 2024).

Common to all, as to assay type: cell-based
Test [1] deals with breast cancer cell line (MDA-MB-231). The test can be described thus: MTS assay, cancer cell proliferation inhibition, breast cancer cell line. The note with it: MDA-MB-231, 500 μM oligopeptide, 72 hours, OD 490 nm, vs untreated control (FIG. 2). As for the experimental part: (§1) To measure the cancer cell proliferation inhibitory effect of the oligopeptides synthesized in Example 1, an MTS (3-(4,5-dimethylthiazol-2-y)-5-(3-carboxymethoxyphenyl)-2-(4-sulfophenyl)-2H-tetrazolium, inner salt) assay for cancer cells was performed. Specifically, each of a lung cancer cell line (H1975), a breast cancer cell line (MDA-MB-231) and a blood cancer cell line (Daudi), which were cultured in 96-well microplates, was treated with 500 μM of the oligopeptides synthesized in Example 1, and incubated in a 37° C. incubator for 72 hours. Each cell culture was treated with an MTS reagent and incubated in a 37° C. incubator for 30 minutes or more, and absorbance (OD) was measured at 490 nm.
(In general: Formazan colour is commonly taken as a measure of viable cells.)

For test [2], the system named is blood cancer cell line (Daudi). The test is described as follows: MTS assay, cancer cell proliferation inhibition, blood cancer cell line. The note with it: 500 μM oligopeptide, 72 hours, OD 490 nm, vs untreated control (FIG. 3). As for the experimental part: as §1
Test [3] has as its system lung cancer cell line (H1975). The test is described as follows: MTS assay, cancer cell proliferation inhibition, lung cancer cell line. The note with it: H1975, 500 μM oligopeptide, 72 hours, OD 490 nm, vs untreated control (FIG. 1). As for the experimental part: as §1

Consider TSATWPDTVR (pep #2), for which the “cancer cell proliferation inhibitory effect” value in test [1] was “better cancer cell proliferation inhibitory effect than an untreated control”. The “cancer cell proliferation inhibitory activity” value in test [2] is recorded as “better cancer cell proliferation inhibitory activity than an untreated control”.
For SREQRNGPGM (pep #9), the “cancer cell proliferation inhibitory activity” value in test [3] is “excellent cancer cell proliferation inhibitory effects”.
With SICIYGGRNR (pep #7), the “cancer cell proliferation inhibitory activity” value is given as “excellent cancer cell proliferation inhibitory effects” in test [3] and “better cancer cell proliferation inhibitory activity than an untreated control” in test [2]. Moreover, the “cancer cell proliferation inhibitory effect” value in test [1] was “better cancer cell proliferation inhibitory effect than an untreated control; also recorded: excellent cancer cell proliferation inhibitory effects”.
As to WPDTVRQLAL (pep #3), the “cancer cell proliferation inhibitory effect” value in test [1] was “better cancer cell proliferation inhibitory effect than an untreated control; also recorded: excellent cancer cell proliferation inhibitory effects”. In addition, in test [2], the “cancer cell proliferation inhibitory activity” value is “better cancer cell proliferation inhibitory activity than an untreated control”.
In the case of QTVMTSATWP (pep #6), the “cancer cell proliferation inhibitory activity” value in test [3] is “excellent cancer cell proliferation inhibitory effects”; in test [2] it was “better cancer cell proliferation inhibitory activity than an untreated control”.
Take GMLVLTPTRE (pep #8): the figures for the “cancer cell proliferation inhibitory activity” value in test [3] and in test [2] were “excellent cancer cell proliferation inhibitory effects” and “better cancer cell proliferation inhibitory activity than an untreated control; also recorded: excellent cancer cell proliferation inhibitory activity”, respectively. Moreover, the “cancer cell proliferation inhibitory effect” value in test [1] is “better cancer cell proliferation inhibitory effect than an untreated control”.
Turning to ATWPDTVRQL (pep #1), the “cancer cell proliferation inhibitory activity” value in test [2] is “better cancer cell proliferation inhibitory activity than an untreated control”.
Regarding AECSKYSYKG (pep #5), the “cancer cell proliferation inhibitory effect” value in test [1] is recorded as “better cancer cell proliferation inhibitory effect than an untreated control; also recorded: excellent cancer cell proliferation inhibitory effects”. Also, the “cancer cell proliferation inhibitory activity” value in test [2] is “better cancer cell proliferation inhibitory activity than an untreated control; also recorded: excellent cancer cell proliferation inhibitory activity”.
On to CSKYSYKGLK (pep #4), for which the “cancer cell proliferation inhibitory effect” value in test [1] is given as “better cancer cell proliferation inhibitory effect than an untreated control”. Moreover, in test [2], the “cancer cell proliferation inhibitory activity” value was “better cancer cell proliferation inhibitory activity than an untreated control”.
